Results: publication PMC4121097, “Glioma-Associated Antigen HEATR1 Induces Functional Cytotoxic T Lymphocytes in Patients with Glioma” (Journal of Immunology Research, 2014)

Experiments:
HLA-A∗02:01 on T2 cells = molecular target: T1, HLA-A∗02:01 on T2 cells (Homo sapiens, UniProt P04439, D140Y/D185E/D98H/E176V/E277Q/G131W/G231S/I119V/I121R/I166T/I218V/L300P/L318F/N151K/N90K/P208A/P217A/Q86G/Q94H/R138H/R169H/T345S); assay: T2-cell-peptide binding test (peptide-induced HLA-A∗02:01 expression, flow cytometry); details: peptide 20 μg/mL; for affinity for binding to HLA-A∗02 (in words): 4 h, Figure 2(b); for percentage of MFI increase of HLA-A∗02:01: 4 h in SFM, BB7.2 anti-HLA-A∗02:01 mAb, mean ± SE of three independent experiments, SEM
T1 construct: measuring peptide-induced expression of HLA-A∗02:01 on T2 cells using flow cytometry; host or cells: T2 cells (human, TAP1/TAP2-deficient)
Protocol: The binding activity of selected peptides to the HLA-A∗02 molecule was determined semiquantitatively by measuring peptide-induced expression of HLA-A∗02:01 on T2 cells using flow cytometry. The T2 cells were incubated for 4 h with the candidate peptides, respectively, at a concentration of 20 μg/mL in SFM. After being washed with phosphate buffered saline-fetal calf serum (PBS-FCS), the T2 cells were incubated with supernatant containing murine mAb against HLA-A∗02:01 derived from BB7.2 cells for 30 min at 4°C. The T2 cells were washed twice with PBS-FCS and stained with 5 μg/mL diluted fluorescein isothiocyanate-conjugated immunoglobulin G which reacts to mouse immunoglobulin for 30 min. The cells were then rinsed three times with PBS-FCS and analyzed using a FACSAria flow cytometer. The percent mean fluorescence index (% MFI) increase of HLA-A∗02:01 molecules was calculated as follows: % MFI increase = [(MFI with peptide − MFI without peptide)]/(MFI without peptide) × 100 [27].

[1] = tested on: PBMCs from healthy donors and patients with glioma; assay: IFN-γ ELISpot assay with PBMCs; type: cell-based, human; details: PBMCs from five HLA-A∗02+ patients with GBM and one control patient with benign tumor, Figure 4
Protocol: A human IFN-γ ELISpot kit (552138; BD Pharmingen, CA) was used to quantify the CTL response in PBMCs. Several 96-well plates were coated with purified anti-human IFN-γ monoclonal antibodies at the concentration of 5 μg/mL at 100 μL/well and incubated at 4°C overnight and then washed once with 200 μL/well of RPMI-1640 containing 10% FBS and 1% penicillin-streptomycin-L-glutamine (R10) and blocked with 200 μL/well R10 for 2 h at room temperature. PBMCs were then washed twice with R10 and resuspended in R10 complete culture medium. After being counted, the cells were then adjusted to the concentration of 1 × 10^6 cells/mL and plated onto a 96-well ELISpot plate at 50 μL/well (5 × 10^4 cells/well) with the addition of 50 μL of the peptide. The final concentration of each peptide was 5 μg/mL. The 96-well ELISpot plates were incubated for about 20 h at 37°C in 5% CO2. After incubation, the ELISpot plates were developed according to the kit instructions. Finally, the plates were air-dried and the resulting spots were counted with ChampSpot IV Bioreader (Beijing SAGE Creation Science, Beijing, China). Peptide-specific IFN-γ ELISpot responses were considered positive only when the number of spots was twofold greater than the control peptide stimulation and there were >50 spots per 1 × 10^6 PBMCs.

FLFDTQHFI [HEATR1_2003–2011]
affinity for binding to HLA-A∗02 (in words) (HLA-A∗02:01 on T2 cells): lower affinity

FLWILLILL [HEATR1_1411–1419]
affinity for binding to HLA-A∗02 (in words) (HLA-A∗02:01 on T2 cells): lowest affinity

KLLRMLFDL [HEATR1_1126–1134]
percentage of MFI increase of HLA-A∗02:01 (HLA-A∗02:01 on T2 cells): 287.2 ± 7.7%
ELISpot response to individual peptide (in words) [1]: higher than the others

KMVEDLISV [HEATR1_682–690]
affinity for binding to HLA-A∗02 (in words) (HLA-A∗02:01 on T2 cells): highest affinity
percentage of MFI increase of HLA-A∗02:01 (HLA-A∗02:01 on T2 cells): 308.5 ± 4.8%
ELISpot response to individual peptide (in words) [1]: higher than the others

LLPESIPFL [HEATR1_2102–2110]
percentage of MFI increase of HLA-A∗02:01 (HLA-A∗02:01 on T2 cells): 285.2 ± 49.2%

LMLDRGIPV [HEATR1_757–765]
percentage of MFI increase of HLA-A∗02:01 (HLA-A∗02:01 on T2 cells): 228.7 ± 5.4%
ELISpot response to individual peptide (in words) [1]: highest ELISpot response
